Reference: patent US20040248775A1, “Methods for screening inhibitors of apoptosis” (Wyeth, priority 2003, published 2004)

Target: T1, His6-NALP1 wild-type (Homo sapiens, UniProt Q9C000)
T1 construct: made in house; host or cells: COS-7 cells, transient transfection, Ni-NTA purification
T1 sequence (Q9C000 1-1473): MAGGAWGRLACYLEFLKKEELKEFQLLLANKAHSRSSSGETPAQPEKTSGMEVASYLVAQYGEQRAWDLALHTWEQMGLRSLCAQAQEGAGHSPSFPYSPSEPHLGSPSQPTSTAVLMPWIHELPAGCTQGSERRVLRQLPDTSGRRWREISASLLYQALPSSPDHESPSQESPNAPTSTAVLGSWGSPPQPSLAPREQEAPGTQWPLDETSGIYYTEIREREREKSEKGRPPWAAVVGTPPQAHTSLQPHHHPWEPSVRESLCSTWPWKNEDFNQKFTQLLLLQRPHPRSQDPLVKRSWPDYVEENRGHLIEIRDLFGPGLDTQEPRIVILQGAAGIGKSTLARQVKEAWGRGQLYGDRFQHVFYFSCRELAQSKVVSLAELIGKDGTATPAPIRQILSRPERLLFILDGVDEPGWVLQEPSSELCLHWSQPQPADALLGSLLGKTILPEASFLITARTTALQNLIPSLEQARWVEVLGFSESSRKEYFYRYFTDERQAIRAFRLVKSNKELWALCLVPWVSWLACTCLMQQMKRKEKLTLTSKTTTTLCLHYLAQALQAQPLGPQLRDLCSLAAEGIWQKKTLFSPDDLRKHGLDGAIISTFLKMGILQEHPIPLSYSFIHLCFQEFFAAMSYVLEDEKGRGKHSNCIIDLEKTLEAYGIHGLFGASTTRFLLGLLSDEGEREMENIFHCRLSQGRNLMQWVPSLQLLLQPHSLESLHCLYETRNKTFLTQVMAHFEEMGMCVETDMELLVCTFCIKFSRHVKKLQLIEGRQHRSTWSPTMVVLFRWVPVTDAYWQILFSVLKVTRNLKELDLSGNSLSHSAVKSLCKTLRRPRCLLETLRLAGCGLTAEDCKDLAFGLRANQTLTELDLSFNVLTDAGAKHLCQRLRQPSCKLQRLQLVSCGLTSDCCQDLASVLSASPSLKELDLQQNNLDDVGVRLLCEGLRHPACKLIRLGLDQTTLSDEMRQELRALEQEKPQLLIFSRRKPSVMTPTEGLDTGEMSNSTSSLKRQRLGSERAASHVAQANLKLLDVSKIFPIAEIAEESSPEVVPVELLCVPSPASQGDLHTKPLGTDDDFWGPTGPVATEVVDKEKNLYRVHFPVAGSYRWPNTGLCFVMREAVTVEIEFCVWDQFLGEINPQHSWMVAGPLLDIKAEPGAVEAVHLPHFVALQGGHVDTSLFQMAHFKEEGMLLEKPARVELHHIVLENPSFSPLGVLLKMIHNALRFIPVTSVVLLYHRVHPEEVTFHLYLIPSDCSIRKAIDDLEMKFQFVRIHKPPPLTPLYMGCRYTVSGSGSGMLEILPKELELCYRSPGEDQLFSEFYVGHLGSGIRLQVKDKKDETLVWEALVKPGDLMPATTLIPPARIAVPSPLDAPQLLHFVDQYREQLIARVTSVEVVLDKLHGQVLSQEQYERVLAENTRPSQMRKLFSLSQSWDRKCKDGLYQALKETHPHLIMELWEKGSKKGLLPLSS
Test: Ni flashplate dATPα35S binding assay, wild-type His6-NALP1
Details: 8 nM dATPα35S displaced by non-radiolabeled dATP
Procedure: Production of purified NALP-Flashplate binding assay. NALP1 protein for in vitro binding assays was purified from transiently transfected cells. COS-7 cells were plated in DMEM, 10% fetal calf serum with amino acid supplements and antibiotics and allowed to grow to approximately 50% confluency. Large-scale preparations were performed in Cell Factories (NUNC) with approximately 600 μg plasmid DNA. Polyfect transfection reagent (Qiagen) was used as described by the manufacturer. After 24 hours, cells were collected by trypsinization, washed with fresh medium and then with PBS. Cells were lysed by resuspension in 10× cell volume of lysis buffer (140 mM NaCl, 0.1% Triton-X100, 0.1 mM DTT, 20 mM HEPES at pH 7.4 and protease inhibitor cocktail (Roche Diagnostics BmbH)). Lysates were centrifuged at approximately 7400×g for 30 minutes and supernatants were supplemented with glycerol to a final concentration of 10% and stored at −70° C. until purification. Protein concentrations were measured and samples normalized. Extracts were mixed with 1 ml Ni-NTA agarose equilibrated with the same buffer for 1 hour at 4° C. in the tube. Disposable columns were filled with the resin and flow-through collected. […] Reactions were stopped by aspirating solutions and washed once with Buffer B. Plates were counted in a Top Count scintillation counter (Packard).

Compound: Nc1ncnc2c1ncn2[C@H]1C[C@H](O)[C@@H](COP(=O)(O)OP(=O)(O)OP(=O)(O)O)O1 [dATP]
- specific binding of dATP to wild-type NALP1: specific binding
